Counter-ions that a name gives are not always drawn. Like-named read-outs stand apart in the source and are kept apart here.
How the values were obtained:
[1] = biological target: T1, human ciliary process beta-adrenergic receptors (Homo sapiens, UniProt P07550); experiment: biochemical
T1 construct: ciliary process from human donor eyes was assayed biochemically; from tissue; host or cells: ciliary process from human donor eyes

[2] = biological target: T2, rabbit ciliary process adenylate cyclase (Oryctolagus cuniculus, UniProt G1TAV7); experiment: Rabbit ciliary process beta-adrenergic sensitive adenylate cyclase activity; assay type: biochemical; details: for Ki: antagonists, inhibition of isoproterenol-stimulated activity, Table I, read-out: Adenylate Cyclase Ki, Ciliary Process Rabbit (B)
T2 construct: After isolation of the ciliary process, adenylate cyclase activity was measured; from tissue; host or cells: rabbit ciliary process
T2 sequence (G1TAV7 1-437): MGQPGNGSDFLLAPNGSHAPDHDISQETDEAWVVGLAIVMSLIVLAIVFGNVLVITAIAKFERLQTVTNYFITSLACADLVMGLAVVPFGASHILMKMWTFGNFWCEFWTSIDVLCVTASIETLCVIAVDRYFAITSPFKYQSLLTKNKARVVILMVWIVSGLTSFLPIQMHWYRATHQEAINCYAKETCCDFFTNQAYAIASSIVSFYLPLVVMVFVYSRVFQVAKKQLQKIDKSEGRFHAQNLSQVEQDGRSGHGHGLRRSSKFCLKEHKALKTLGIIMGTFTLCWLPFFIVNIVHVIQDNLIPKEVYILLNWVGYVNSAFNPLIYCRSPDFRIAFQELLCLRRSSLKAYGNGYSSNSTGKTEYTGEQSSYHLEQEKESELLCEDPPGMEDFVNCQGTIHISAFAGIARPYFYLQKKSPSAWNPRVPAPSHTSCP

[3] = biological target: T3, beta-adrenergic sensitive adenylate cyclase present in mammalian choroid plexus (Felis catus, UniProt Q9TST5); experiment: Choroid plexus adenylate cyclase activity; assay type: biochemical
T3 construct: are prepared from the various tissues to be studied (e.g., ciliary process, choroid plexus, heart or lung); from tissue; host or cells: choroid plexus (homogenate or washed particulate)
T3 sequence (Q9TST5 whole entry): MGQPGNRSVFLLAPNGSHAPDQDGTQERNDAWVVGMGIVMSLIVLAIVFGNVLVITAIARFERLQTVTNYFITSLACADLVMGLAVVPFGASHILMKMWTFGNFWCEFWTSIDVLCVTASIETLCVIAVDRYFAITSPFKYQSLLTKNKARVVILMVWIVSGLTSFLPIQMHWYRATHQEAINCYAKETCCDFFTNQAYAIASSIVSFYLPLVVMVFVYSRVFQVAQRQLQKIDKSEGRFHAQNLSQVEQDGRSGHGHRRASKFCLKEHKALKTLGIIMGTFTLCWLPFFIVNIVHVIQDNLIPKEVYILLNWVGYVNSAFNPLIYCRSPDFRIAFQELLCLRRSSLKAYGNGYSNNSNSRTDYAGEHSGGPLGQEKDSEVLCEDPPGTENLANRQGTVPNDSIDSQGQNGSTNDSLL

heart adenylate cyclase [4] = experiment: Heart adenylate cyclase activation and inhibition; assay type: biochemical, mammalian; details: antagonists; Table I; ** data from the present inventor, method (a); read-out: Adenylate Cyclase Ki, Heart (G)
[5] = biological target: beta1 -adrenergic receptor present in mammalian heart; details: Table I; Minneman et al; read-out: Kd for IHYP Binding, Heart (E); cited from earlier work
[6] = tested on: intraocular pressure above normal; experiment: Alpha chymotrypsin-induced glaucoma in rabbits; assay type: in vivo, rabbit; details: compared with timolol
From the text: This effect is also observed under conditions of elevated pressure.

[7] = tested on: intraocular pressure in rabbit eyes
[8] = tested on: cardioacceleratory effect of isoproterenol; details: subcutaneous antagonist 30 minutes before 3 micrograms/kg subcutaneous isoproterenol; rabbits
heart adenylate cyclase [9] = biological target: T4, heart adenylate cyclase (Rattus norvegicus, UniProt P18090); details: agonists; Table I; Minneman et al; NE = no effect as agonist; cited from earlier work
T4 construct: are prepared from the various tissues to be studied (e.g., ciliary process, choroid plexus, heart or lung); from tissue; host or cells: heart (homogenate or washed particulate)
T4 sequence (P18090 whole entry): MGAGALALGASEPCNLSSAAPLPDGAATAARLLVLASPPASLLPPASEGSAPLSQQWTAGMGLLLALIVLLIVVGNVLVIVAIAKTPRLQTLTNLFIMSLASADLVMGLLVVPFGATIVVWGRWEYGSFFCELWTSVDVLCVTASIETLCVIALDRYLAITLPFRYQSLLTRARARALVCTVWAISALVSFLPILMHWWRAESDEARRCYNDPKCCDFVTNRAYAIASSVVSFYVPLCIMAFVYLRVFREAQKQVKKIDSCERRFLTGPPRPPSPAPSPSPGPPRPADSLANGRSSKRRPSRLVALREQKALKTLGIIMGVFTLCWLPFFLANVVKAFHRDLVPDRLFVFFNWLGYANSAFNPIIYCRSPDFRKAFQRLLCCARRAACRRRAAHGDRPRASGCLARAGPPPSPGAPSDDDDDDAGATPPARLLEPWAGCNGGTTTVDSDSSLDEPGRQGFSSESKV

iris adenylate cyclase = experiment: Iris adenylate cyclase stimulation; assay type: biochemical
From the text: (§1) The discovery that the ciliary process of the mammalian eye contains β2 -adrenergic receptors is based on the technique of measuring adenylate cyclase, an enzyme which synthesizes cyclic AMP from ATP. It has been established that receptor binding of beta adrenergic agonists is associated with a concomitant activation of adenylate cyclase. (Robison, G. A., et al, Cyclic AMP, Academic Press, New York, 1971, and Wolfe, B. B., et al, Annual Reviews of Pharmacology and Toxicology, 17:575-604 (1977)). […] Beta adrenergic sensitive adenylate cyclase activity was thus identified and characterized in the ocular tissues of several mammalian species such as rabbits, cats, dogs, monkeys and humans. After isolation of the ciliary process, adenylate cyclase activity was measured, and its activation by agonists or inhibition by antagonists was measured. […].
(§2) For ciliary body, maximal stimulation was 15% of the stimulation seen in the ciliary process, and for iris, maximal stimulation was 22% for that seen in the ciliary process. […];

[10] = tested on: ciliary body adenylate cyclase; experiment: Ciliary body adenylate cyclase stimulation; assay type: biochemical
From the text: as §1, §2

[11] = tested on: rabbit ciliary process adenylate cyclase; experiment: Rabbit ciliary process beta-adrenergic sensitive adenylate cyclase activity; assay type: biochemical; details: Table I columns B (rabbit ciliary process) and G
[12] = 0.5% topical to ipsilateral eye
[13] = 0.5% topical, two 50 microliter doses, 2 and 3 hours after application
[14] = antagonists, Table I, read-out: Adenylate Cyclase Ki, Choroid Plexus (C)

T1 sequence (P07550 whole entry): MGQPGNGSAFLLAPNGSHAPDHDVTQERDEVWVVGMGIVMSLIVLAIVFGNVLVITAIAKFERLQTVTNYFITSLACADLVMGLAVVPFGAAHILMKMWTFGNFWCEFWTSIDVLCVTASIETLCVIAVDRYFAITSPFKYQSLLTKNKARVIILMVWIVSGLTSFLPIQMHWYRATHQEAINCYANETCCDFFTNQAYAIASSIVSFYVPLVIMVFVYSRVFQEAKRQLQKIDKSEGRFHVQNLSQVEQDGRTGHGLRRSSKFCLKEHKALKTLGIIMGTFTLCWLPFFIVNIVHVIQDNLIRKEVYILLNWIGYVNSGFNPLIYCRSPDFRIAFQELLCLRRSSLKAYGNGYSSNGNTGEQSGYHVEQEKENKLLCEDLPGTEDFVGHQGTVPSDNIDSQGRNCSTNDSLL

Cc1ccc(C(O)C(C)NC(C)C)cc1 (stereo not drawn) [H35/25, 1(4'-methylphenyl)-2-isopropyl amino propanol]
Ki ([1]; antagonists, inhibition of isoproterenol-stimulated activity, Table I column A, read-out: Adenylate Cyclase Ki, Ciliary Process Human (A)): 740 nM
beta2/beta1 Potency Ratio ([1]; human ciliary process, Table 3): 8.8
Ki ([1]; human ciliary process, Table 3, read-out: Ki for Isoproterenol-Stimulated Adenylate Cyclase): 740 nM
Ki ([1]; inhibition of isoproterenol stimulation of human ciliary process adenylate cyclase, read-out: calculated inhibitory constant (Ki)): 740 nM
Ki [2]: 700 nM
Ki [3]: 140 nM

CC(C)(C)NCC(O)CON=C1c2ccccc2-c2ccccc21 (stereo not drawn) [IPS 339, (t-butyl-amino 3-ol-2-propyl) oximino-9 fluorene, hydrochloride]
Ki (heart adenylate cyclase [4]): 1120 nM
Kd [5]: 10 nM
Intraocular pressure above normal [6]: decreased significantly
Change of IOP in the contralateral eye [7, 12]: significant decrease in IOP in the contralateral eye
Magnitude of contralateral IOP effect compared with timolol [7, 12]: somewhat less for IPS 339 than for timolol
Change of IOP in ipsilateral eyes compared to predrug readings [7, 13]: significant decrease in IOP in ipsilateral eyes
Extent of IOP decrease compared with timolol ([7]; 0.5% topical, at 3 hours): significantly more than that caused by timolol
Pupillary diameter and overt ocular toxicity ([7]; rabbit, in vivo): no significant changes in pupillary diameter nor overt ocular toxicity
Ki [3]: 1.9 nM

CC(C)NCC(O)COc1ccc(CC(N)=O)cc1 (stereo not drawn) [Atenolol, atenolol]
Ki (heart adenylate cyclase [4]): 2700 nM
Ki [2]: 21000 nM
Ki [3, 14]: 5800 nM

Cc1ccc(OCC(O)C(C)NC(C)C)c2c1CCC2 (stereo not drawn) [ICI 118,551]
Ki (heart adenylate cyclase [4]): 1760 nM
Ki [2]: 3 nM
IC50 for blocking isoproterenol-induced increase in heart rate [8]: 140 micrograms/kg
Ocular irritative effects ([7]; rabbit, in vivo): little ocular irritative effects
Decrease in intraocular pressure compared with timolol ([7]; topical 50 μl of a 1% solution, 6 hours, N=12 double blind crossover): both a greater decrease as well as a more prolonged decrease in intraocular pressure than did timolol

CC(C)(C)NC[C@H](O)COc1nsnc1N1CCOCC1 [Timolol, timolol]
Ki (heart adenylate cyclase [4]): 20 nM
Ki [2]: 6.4 nM
IC50 for blocking isoproterenol-induced increase in heart rate [8]: 2.2 micrograms/kg
Change of IOP in the contralateral eye [7, 12]: significant decrease in IOP in the contralateral eye
Change of IOP in ipsilateral eyes compared to predrug readings [7, 13]: significant decrease in IOP in ipsilateral eyes
Change of IOP in ipsilateral eyes compared to predrug readings ([7]; 0.5% topical, 1 hour after application): also caused a significant decrease at 1 hour
Pupillary diameter and overt ocular toxicity ([7]; rabbit, in vivo): no significant changes in pupillary diameter nor overt ocular toxicity

CC(=O)Nc1ccc(OCC(O)CNC(C)C)cc1 (stereo not drawn) [Practolol, practolol]
Ki (heart adenylate cyclase [4]): 5500 nM
Ki [2]: 39000 nM
Kd [5]: 1100 nM
Ki [3, 14]: 8900 nM

CNC[C@H](O)c1ccc(O)c(O)c1 [Epinephrine]
EC50 [2]: 2400 nM
Adenylate Cyclase Ka, Heart (G) (heart adenylate cyclase [9]): 1.5 µM
EC50 [3]: 1550 nM

CC(C)NCC(O)c1ccc(O)c(O)c1 (stereo not drawn) [Isoproterenol]
EC50 [3]: 140 nM
Maximal stimulation, of that seen in the ciliary process (iris adenylate cyclase): 22%
Maximal stimulation, of the stimulation seen in the ciliary process [10]: 15%

COc1ccc(OC)c(C(O)C(C)NC(C)(C)C)c1 (stereo not drawn) [Butoxamine]
Ki (heart adenylate cyclase [4]): 15000 nM
Ki [2]: 1530 nM
β2/β1 potency ratio (Ki heart/Ki ciliary process) [11]: 9.8
Kd [5]: 7030 nM
Ki [3, 14]: 1500 nM

NC[C@H](O)c1ccc(O)c(O)c1 [Norepinephrine]
EC50 [2]: 29000 nM
Kd [5]: 820 nM
EC50 ([3]; agonists, Table I, read-out: Adenylate Cyclase Ka, Choroid Plexus (C)): 25000 nM

— patent publication US4469706A, “Selective beta-2 adrenergic antagonists for the treatment of glaucoma” (priority 1982, dated 1984)
